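Values below derive from 48-hour exposures of cells grown in 96-well plates, with endpoints linearly interpolated between the two concentrations bracketing the appropriate inhibition level. GI50 = concentration required for 50% inhibition of growth. TGI denotes the concentration required for complete inhibition of growth.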
Key:
Assay in all cases: NCI anticancer screen, dose series, 48 h
HOP-62 NSCLC = system: HOP-62 NSCLC
MALME-3M melanoma = system: MALME-3M melanoma
EKVX NSCLC = system: EKVX NSCLC
HT29 colon = system: HT29 colon
K-562 leukemia = system: K-562 leukemia
U251 CNS = system: U251 CNS
HCC-2998 colon = system: HCC-2998 colon
SN12C renal = system: SN12C renal
RXF 393 renal = system: RXF 393 renal
SNB-75 CNS = system: SNB-75 CNS
A498 renal = system: A498 renal
CCRF-CEM leukemia = system: CCRF-CEM leukemia
TK-10 renal = system: TK-10 renal
KM20L2 colon = system: KM20L2 colon
DMS 114 small cell lung = system: DMS 114 small cell lung
HCT-116 colon = system: HCT-116 colon
SK-MEL-2 melanoma = system: SK-MEL-2 melanoma
SK-MEL-5 melanoma = system: SK-MEL-5 melanoma
NCI-H460 lung = system: NCI-H460 lung
HL-60(TB) leukemia = system: HL-60(TB) leukemia
LXFL 529 NSCLC = system: LXFL 529 NSCLC
NCI-H23 lung = system: NCI-H23 lung
SNB-78 CNS = system: SNB-78 CNS
KM12 colon = system: KM12 colon
UACC-257 melanoma = system: UACC-257 melanoma
SF-295 CNS = system: SF-295 CNS
786-0 renal = system: 786-0 renal
NCI-H522 lung = system: NCI-H522 lung
A549 NSCLC = system: A549 NSCLC
M14 melanoma = system: M14 melanoma
M19-MEL melanoma = system: M19-MEL melanoma
ACHN renal = system: ACHN renal
IGROV1 ovarian = system: IGROV1 ovarian
RPMI-8226 leukemia = system: RPMI-8226 leukemia
OVCAR-8 ovarian = system: OVCAR-8 ovarian
SW-620 colon = system: SW-620 colon
SF-268 CNS = system: SF-268 CNS
MOLT-4 leukemia = system: MOLT-4 leukemia
HOP-92 NSCLC = system: HOP-92 NSCLC
HCT-15 colon = system: HCT-15 colon
SF-539 CNS = system: SF-539 CNS
SK-MEL-28 melanoma = system: SK-MEL-28 melanoma
SNB-19 CNS = system: SNB-19 CNS
OVCAR-5 ovarian = system: OVCAR-5 ovarian
HOP-18 NSCLC = system: HOP-18 NSCLC
DLD-1 colon = system: DLD-1 colon
UO-31 renal = system: UO-31 renal
UACC-62 melanoma = system: UACC-62 melanoma
COLO 205 colon = system: COLO 205 colon
SK-OV-3 ovarian = system: SK-OV-3 ovarian
SR leukemia = system: SR leukemia
CAKI-1 renal = system: CAKI-1 renal
LOX IMVI melanoma = system: LOX IMVI melanoma
DMS 273 small cell lung = system: DMS 273 small cell lung
XF 498 CNS = system: XF 498 CNS
OVCAR-3 ovarian = system: OVCAR-3 ovarian
OVCAR-4 ovarian = system: OVCAR-4 ovarian

CC1=N/C(=C\c2cccc([N+](=O)[O-])c2)C(=O)O1
TGI (HOP-62 NSCLC): > 100 µM
TGI (MALME-3M melanoma): > 100 µM
TGI (EKVX NSCLC): > 100 µM
TGI (HT29 colon): > 100 µM
TGI (K-562 leukemia): > 100 µM
TGI (U251 CNS): > 100 µM
TGI (HCC-2998 colon): > 100 µM
TGI (SN12C renal): > 100 µM
TGI (RXF 393 renal): > 100 µM
TGI (SNB-75 CNS): 91 µM
TGI (A498 renal): > 100 µM
TGI (CCRF-CEM leukemia): > 100 µM
TGI (TK-10 renal): > 100 µM
TGI (KM20L2 colon): > 100 µM
TGI (DMS 114 small cell lung): > 100 µM
TGI (HCT-116 colon): > 100 µM
TGI (SK-MEL-2 melanoma): > 100 µM
TGI (SK-MEL-5 melanoma): > 100 µM
TGI (NCI-H460 lung): > 100 µM
TGI (HL-60(TB) leukemia): > 100 µM
TGI (LXFL 529 NSCLC): > 100 µM
TGI (NCI-H23 lung): > 100 µM
TGI (SNB-78 CNS): > 100 µM
TGI (KM12 colon): > 100 µM
TGI (UACC-257 melanoma): > 100 µM
TGI (SF-295 CNS): > 100 µM
TGI (786-0 renal): > 100 µM
TGI (NCI-H522 lung): > 100 µM
TGI (A549 NSCLC): > 100 µM
TGI (M14 melanoma): > 100 µM
TGI (M19-MEL melanoma): > 100 µM
TGI (ACHN renal): > 100 µM
TGI (IGROV1 ovarian): > 100 µM
TGI (RPMI-8226 leukemia): > 100 µM
TGI (OVCAR-8 ovarian): > 100 µM
TGI (SW-620 colon): > 100 µM
TGI (SF-268 CNS): > 100 µM
TGI (MOLT-4 leukemia): > 100 µM
TGI (HOP-92 NSCLC): > 100 µM
TGI (HCT-15 colon): > 100 µM
TGI (SF-539 CNS): > 100 µM
TGI (SK-MEL-28 melanoma): > 100 µM
TGI (SNB-19 CNS): > 100 µM
TGI (OVCAR-5 ovarian): > 100 µM
TGI (HOP-18 NSCLC): > 100 µM
TGI (DLD-1 colon): > 100 µM
TGI (UO-31 renal): > 100 µM
TGI (UACC-62 melanoma): > 100 µM
TGI (COLO 205 colon): > 100 µM

c1cc[c]([Pb]([c]2ccccc2)[c]2ccccc2)cc1
GI50 (HOP-62 NSCLC): 36.9 µM
TGI (HOP-62 NSCLC): 79.3 µM
GI50 (MALME-3M melanoma): 16.7 µM
TGI (MALME-3M melanoma): 36.6 µM
GI50 (EKVX NSCLC): 25.2 µM
TGI (EKVX NSCLC): 76.8 µM
GI50 (HT29 colon): 16.4 µM
TGI (HT29 colon): 49.6 µM
GI50 (K-562 leukemia): 11 µM
TGI (K-562 leukemia): 61.4 µM
GI50 (U251 CNS): 11.3 µM
TGI (U251 CNS): 23.9 µM
GI50 (HCC-2998 colon): 14.8 µM
TGI (HCC-2998 colon): 37.3 µM
GI50 (SN12C renal): 8.17 µM
TGI (SN12C renal): 22.3 µM
GI50 (SK-OV-3 ovarian): 11.2 µM
TGI (SK-OV-3 ovarian): 38.2 µM
GI50 (SR leukemia): 14.4 µM
TGI (SR leukemia): 74.6 µM
GI50 (SNB-75 CNS): 6.8 µM
TGI (SNB-75 CNS): 45 µM
GI50 (A498 renal): 16 µM
TGI (A498 renal): 46.2 µM
GI50 (CCRF-CEM leukemia): 10.1 µM
TGI (CCRF-CEM leukemia): > 100 µM
GI50 (KM20L2 colon): 23.3 µM
TGI (KM20L2 colon): 91.6 µM
GI50 (DMS 114 small cell lung): 1.92 µM
TGI (DMS 114 small cell lung): 12.7 µM
GI50 (HCT-116 colon): 10.5 µM
TGI (HCT-116 colon): 27.1 µM
GI50 (SK-MEL-2 melanoma): 6.04 µM
TGI (SK-MEL-2 melanoma): 24 µM
GI50 (SK-MEL-5 melanoma): 12.3 µM
TGI (SK-MEL-5 melanoma): 32.6 µM
GI50 (NCI-H460 lung): 20.2 µM
TGI (NCI-H460 lung): > 100 µM
GI50 (HL-60(TB) leukemia): 41.9 µM
TGI (HL-60(TB) leukemia): > 100 µM
GI50 (LXFL 529 NSCLC): 4.03 µM
TGI (LXFL 529 NSCLC): 17.2 µM
GI50 (NCI-H23 lung): 3.34 µM
TGI (NCI-H23 lung): 15.8 µM
GI50 (SNB-78 CNS): 13.2 µM
TGI (SNB-78 CNS): > 100 µM
GI50 (CAKI-1 renal): 30 µM
TGI (CAKI-1 renal): > 100 µM
GI50 (KM12 colon): 23.4 µM
TGI (KM12 colon): > 100 µM
GI50 (UACC-257 melanoma): 19 µM
TGI (UACC-257 melanoma): 59.1 µM
GI50 (SF-295 CNS): 21.9 µM
TGI (SF-295 CNS): 58.3 µM
GI50 (786-0 renal): 11.4 µM
TGI (786-0 renal): 33.2 µM
GI50 (NCI-H522 lung): 2.53 µM
TGI (NCI-H522 lung): 15.1 µM
GI50 (A549 NSCLC): 60 µM
TGI (A549 NSCLC): > 100 µM
GI50 (M14 melanoma): 14.2 µM
TGI (M14 melanoma): 47.4 µM
GI50 (ACHN renal): 33.4 µM
TGI (ACHN renal): > 100 µM
GI50 (IGROV1 ovarian): 10 µM
TGI (IGROV1 ovarian): 32 µM
GI50 (RPMI-8226 leukemia): 14.5 µM
TGI (RPMI-8226 leukemia): 90 µM
GI50 (OVCAR-8 ovarian): 12.4 µM
TGI (OVCAR-8 ovarian): 72.5 µM
GI50 (LOX IMVI melanoma): 3.24 µM
GI50 (SW-620 colon): 21.2 µM
TGI (SW-620 colon): 57.1 µM
GI50 (SF-268 CNS): 7.34 µM
TGI (SF-268 CNS): 50.7 µM
GI50 (MOLT-4 leukemia): 15.7 µM
TGI (MOLT-4 leukemia): 71.7 µM
GI50 (HOP-92 NSCLC): 10.7 µM
TGI (HOP-92 NSCLC): 47.8 µM
GI50 (HCT-15 colon): 12.4 µM
TGI (HCT-15 colon): 28.4 µM
GI50 (SF-539 CNS): 14.2 µM
TGI (SF-539 CNS): 43.2 µM
GI50 (DMS 273 small cell lung): 10.4 µM
TGI (DMS 273 small cell lung): 27.8 µM
GI50 (XF 498 CNS): 23.9 µM
TGI (XF 498 CNS): 42.7 µM
GI50 (SK-MEL-28 melanoma): 16.5 µM
TGI (SK-MEL-28 melanoma): 36.6 µM
GI50 (SNB-19 CNS): 16.5 µM
TGI (SNB-19 CNS): 38.7 µM
GI50 (OVCAR-5 ovarian): 11 µM
TGI (OVCAR-5 ovarian): 34.9 µM
GI50 (HOP-18 NSCLC): 16.8 µM
TGI (HOP-18 NSCLC): 50.8 µM
GI50 (DLD-1 colon): 11.9 µM
TGI (DLD-1 colon): 29.6 µM
GI50 (UO-31 renal): 26.8 µM
TGI (UO-31 renal): 88.6 µM
GI50 (OVCAR-3 ovarian): 10.4 µM
TGI (OVCAR-3 ovarian): 23.8 µM
GI50 (OVCAR-4 ovarian): 22 µM
TGI (OVCAR-4 ovarian): > 100 µM
GI50 (UACC-62 melanoma): 6.1 µM
TGI (UACC-62 melanoma): 19.8 µM
GI50 (COLO 205 colon): 14.8 µM
TGI (COLO 205 colon): 30.3 µM
